Measured values from patent publication US8481749B2, “N-(tetrazol-5-yl)- and N-(triazol-5-yl)arylcarboxamides and their use as herbicides” (Bayer Cropscience AG, priority 2010, dated 2013).

Test system: Veronica persica
Experiment: Pre-emergence herbicidal action against harmful plants
Assay type: in vivo
Details: 504 h, application rate 80 g/ha, visual assessment after 3 weeks vs untreated controls (100%=plants have died, 0%=like control), read-out: herbicidal activity in percent against Veronica persica

SMILES	pest or weed control at 80 g/ha
CCn1ncnc1NC(=O)c1ccc(C(F)(F)F)c(S(C)(=O)=O)c1C [Compound 2-148]	≥ 80%
CCSc1c(Cl)ccc(C(=O)Nc2nnnn2CC)c1C [Compound 5-122]	≥ 80%
CCn1nnnc1NC(=O)c1ccc(Cl)c(S(=O)(=O)CC)c1C [Compound 5-124]	≥ 80%
CCn1nnnc1NC(=O)c1ccc(S(C)(=O)=O)c(OC)c1C [Compound 5-166]	≥ 80%
CCn1nnnc1NC(=O)c1ccc(C(F)(F)F)c(S(C)(=O)=O)c1C1CC1 [Compound 5-210]	≥ 80%
CCn1nnnc1NC(=O)c1ccc(S(C)(=O)=O)c(OC)c1Cl [Compound 5-276]	≥ 80%
CCn1nnnc1NC(=O)c1ccc(C#N)c(SC)c1C [Compound 5-392]	≥ 80%
CCCc1c(C(=O)Nc2nnnn2CC)ccc(Cl)c1[S+](C)[O-] (stereo not drawn) [Compound 5-510]	≥ 80%
CCn1nnnc1NC(=O)c1ccc(S(C)(=O)=O)c(SC)c1C(F)(F)F [Compound 5-597]	≥ 80%
CCn1nnnc1NC(=O)c1ccc(S(=O)(=O)CC)c(SC)c1C(F)(F)F [Compound 5-598]	≥ 80%
CCn1nnnc1NC(=O)c1ccc(C)c(SC)c1Cl [Compound 5-614]	≥ 80%
C#CCOc1c(S(C)(=O)=O)ccc(C(=O)Nc2nnnn2CC)c1Cl [Compound 5-676]	≥ 80%
